# In ChEMBL document CHEMBL1137452, “Synthesis of disulfide esters of dialkylaminocarbothioic acid as potent, non-detergent spermicidal agents” (Bioorg Med Chem, 2007):
# Species on record: Homo sapiens
# Test: Spermicidal activity against human spermatozoa
# Assay type: functional
# Settings: not given
row,Compound,MEC
1,O=C(SCC(CN1C=CC=CC=C1)SSC(CSC(=O)N1CCCC1)CN1C=CC=CC=C1)N1CCCC1 (racemic),0.05 %w/v
2,O=C(SCC(CN1CCOCC1)SSC(CSC(=O)N1CCCCC1)CN1CCOCC1)N1CCCCC1 (racemic),0.1 %w/v
3,OC(Cn1cncn1)(Cn1cncn1)c1ccc(F)cc1F [FLUCONAZOLE],0.1 %w/v
4,CCCCCCCCCc1ccc(OCCOCCOCCOCCOCCOCCOCCOCCOCCO)cc1 [NONOXYNOL 9],0.05 %w/v
5,O=C(SCC(CN1CCCCC1)SSC(CSC(=O)N1CCCC1)CN1CCCCC1)N1CCCC1 (racemic),0.05 %w/v

# Tested on: Candida albicans
# Test: Antifungal activity against Candida albicans after 48 hrs by broth micro dilution technique
# Assay type: functional, organism-based
# Settings: not given
Compound,IC50,MIC
O=C(SCC(CN1C=CC=CC=C1)SSC(CSC(=O)N1CCCC1)CN1C=CC=CC=C1)N1CCCC1 (racemic),50 mg/L,> 50 mg/L
OC(Cn1cncn1)(Cn1cncn1)c1ccc(F)cc1F [FLUCONAZOLE],0.13 mg/L,0.5 mg/L
CCCCCCCCCc1ccc(OCCOCCOCCOCCOCCOCCOCCOCCOCCO)cc1 [NONOXYNOL 9],46 mg/L,> 50 mg/L
O=C(SCC(CN1CCCCC1)SSC(CSC(=O)N1CCCC1)CN1CCCCC1)N1CCCC1 (racemic),> 50 mg/L,> 50 mg/L

# Tested on: Candida albicans
# Test: Antifungal activity against Candida albicans MTCC 183 after 48 hrs by broth micro dilution technique
# Assay type: functional, organism-based
# Settings: MTCC 183, 48 h
Compound,IC50,MIC
O=C(SCC(CN1C=CC=CC=C1)SSC(CSC(=O)N1CCCC1)CN1C=CC=CC=C1)N1CCCC1 (racemic),26 mg/L,50 mg/L
OC(Cn1cncn1)(Cn1cncn1)c1ccc(F)cc1F [FLUCONAZOLE],0.26 mg/L,0.5 mg/L
CCCCCCCCCc1ccc(OCCOCCOCCOCCOCCOCCOCCOCCOCCO)cc1 [NONOXYNOL 9],41 mg/L,> 50 mg/L
O=C(SCC(CN1CCCCC1)SSC(CSC(=O)N1CCCC1)CN1CCCCC1)N1CCCC1 (racemic),42 mg/L,> 50 mg/L

# Tested on: Candida albicans
# Test: Antifungal activity against Candida albicans MTCC 1346 after 48 hrs by broth micro dilution technique
# Assay type: functional, organism-based
# Settings: MTCC 1346, 48 h
Compound,IC50,MIC
O=C(SCC(CN1C=CC=CC=C1)SSC(CSC(=O)N1CCCC1)CN1C=CC=CC=C1)N1CCCC1 (racemic),50 mg/L,50 mg/L
OC(Cn1cncn1)(Cn1cncn1)c1ccc(F)cc1F [FLUCONAZOLE],0.58 mg/L,2 mg/L
CCCCCCCCCc1ccc(OCCOCCOCCOCCOCCOCCOCCOCCOCCO)cc1 [NONOXYNOL 9],> 50 mg/L,> 50 mg/L
O=C(SCC(CN1CCCCC1)SSC(CSC(=O)N1CCCC1)CN1CCCCC1)N1CCCC1 (racemic),> 50 mg/L,> 50 mg/L

# Tested on: Candida albicans
# Test: Antifungal activity against Candida albicans ATCC 10231 after 48 hrs by broth micro dilution technique
# Assay type: functional, organism-based
# Settings: ATCC 10231, 48 h
Compound,IC50,MIC
O=C(SCC(CN1C=CC=CC=C1)SSC(CSC(=O)N1CCCC1)CN1C=CC=CC=C1)N1CCCC1 (racemic),> 50 mg/L,> 50 mg/L
OC(Cn1cncn1)(Cn1cncn1)c1ccc(F)cc1F [FLUCONAZOLE],0.35 mg/L,1 mg/L
CCCCCCCCCc1ccc(OCCOCCOCCOCCOCCOCCOCCOCCOCCO)cc1 [NONOXYNOL 9],> 50 mg/L,> 50 mg/L
O=C(SCC(CN1CCCCC1)SSC(CSC(=O)N1CCCC1)CN1CCCCC1)N1CCCC1 (racemic),> 50 mg/L,> 50 mg/L

# Tested on: Pichia kudriavzevii
# Test: Antifungal activity against Candida krusei ATCC 6258 after 48 hrs by broth micro dilution technique
# Assay type: functional, organism-based
# Settings: ATCC 6258, 48 h
Compound,IC50,MIC
O=C(SCC(CN1C=CC=CC=C1)SSC(CSC(=O)N1CCCC1)CN1C=CC=CC=C1)N1CCCC1 (racemic),32 mg/L,50 mg/L
OC(Cn1cncn1)(Cn1cncn1)c1ccc(F)cc1F [FLUCONAZOLE],1.38 mg/L,4 mg/L
CCCCCCCCCc1ccc(OCCOCCOCCOCCOCCOCCOCCOCCOCCO)cc1 [NONOXYNOL 9],48 mg/L,50 mg/L
O=C(SCC(CN1CCCCC1)SSC(CSC(=O)N1CCCC1)CN1CCCCC1)N1CCCC1 (racemic),49 mg/L,50 mg/L

# Tested on: Candida parapsilosis
# Test: Antifungal activity against Candida parapsilosis ATCC 22019 after 48 hrs by broth micro dilution technique
# Assay type: functional, organism-based
# Settings: Lodderomyces parapsilosis, ATCC 22019, 48 h
Compound,IC50,MIC
O=C(SCC(CN1C=CC=CC=C1)SSC(CSC(=O)N1CCCC1)CN1C=CC=CC=C1)N1CCCC1 (racemic),42 mg/L,50 mg/L
OC(Cn1cncn1)(Cn1cncn1)c1ccc(F)cc1F [FLUCONAZOLE],0.21 mg/L,1 mg/L
CCCCCCCCCc1ccc(OCCOCCOCCOCCOCCOCCOCCOCCOCCO)cc1 [NONOXYNOL 9],47 mg/L,50 mg/L
O=C(SCC(CN1CCCCC1)SSC(CSC(=O)N1CCCC1)CN1CCCCC1)N1CCCC1 (racemic),48 mg/L,50 mg/L

# Tested on: Candida albicans
# Test: Antifungal activity against Candida albicans ATCC 10453 after 48 hrs by broth micro dilution technique
# Assay type: functional, organism-based
# Settings: ATCC 10453, 48 h
Compound,IC50,MIC
O=C(SCC(CN1C=CC=CC=C1)SSC(CSC(=O)N1CCCC1)CN1C=CC=CC=C1)N1CCCC1 (racemic),> 50 mg/L,> 50 mg/L
OC(Cn1cncn1)(Cn1cncn1)c1ccc(F)cc1F [FLUCONAZOLE],0.63 mg/L,1 mg/L
CCCCCCCCCc1ccc(OCCOCCOCCOCCOCCOCCOCCOCCOCCO)cc1 [NONOXYNOL 9],> 50 mg/L,> 50 mg/L
O=C(SCC(CN1CCCCC1)SSC(CSC(=O)N1CCCC1)CN1CCCCC1)N1CCCC1 (racemic),> 50 mg/L,> 50 mg/L

# Tested on: Candida albicans
# Test: Antifungal activity against Candida albicans ATCC 60193 after 48 hrs by broth micro dilution technique
# Assay type: functional, organism-based
# Settings: ATCC 60193, 48 h
Compound,IC50,MIC
O=C(SCC(CN1C=CC=CC=C1)SSC(CSC(=O)N1CCCC1)CN1C=CC=CC=C1)N1CCCC1 (racemic),42 mg/L,50 mg/L
OC(Cn1cncn1)(Cn1cncn1)c1ccc(F)cc1F [FLUCONAZOLE],0.1 mg/L,0.25 mg/L
CCCCCCCCCc1ccc(OCCOCCOCCOCCOCCOCCOCCOCCOCCO)cc1 [NONOXYNOL 9],> 50 mg/L,> 50 mg/L
O=C(SCC(CN1CCCCC1)SSC(CSC(=O)N1CCCC1)CN1CCCCC1)N1CCCC1 (racemic),> 50 mg/L,> 50 mg/L

# Tested on: Candida albicans
# Test: Antifungal activity against Candida albicans ATCC 66027 after 48 hrs by broth micro dilution technique
# Assay type: functional, organism-based
# Settings: ATCC 66027, 48 h
Compound,IC50,MIC
O=C(SCC(CN1C=CC=CC=C1)SSC(CSC(=O)N1CCCC1)CN1C=CC=CC=C1)N1CCCC1 (racemic),> 50 mg/L,> 50 mg/L
OC(Cn1cncn1)(Cn1cncn1)c1ccc(F)cc1F [FLUCONAZOLE],0.18 mg/L,0.25 mg/L
CCCCCCCCCc1ccc(OCCOCCOCCOCCOCCOCCOCCOCCOCCO)cc1 [NONOXYNOL 9],> 50 mg/L,> 50 mg/L
O=C(SCC(CN1CCCCC1)SSC(CSC(=O)N1CCCC1)CN1CCCCC1)N1CCCC1 (racemic),> 50 mg/L,> 50 mg/L
